From PubChem BioAssay (NCI)
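A five-concentration, 48-hour dose response in 96-well plates underlies each endpoint, interpolated linearly between surrounding concentrations. TGI is the concentration that stops growth completely.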 Where a SMILES comes first, the peptide text is derived from it. [ ]: non-standard residue; d: D form. The star is where a group is joined. Hyp = O=C(O)[CH]1C[CH](O)CN1; Cbz = O=C(OCc1ccccc1)*

Key:
Test in all cases: NCI-60 cell line screen, 48 h
[1] = tested on: U251 CNS
[2] = tested on: IGROV1 ovarian
[3] = tested on: DU-145 prostate
[4] = tested on: CCRF-CEM leukemia
[5] = tested on: HT29 colon
[6] = tested on: SK-OV-3 ovarian
[7] = tested on: BT-549 breast
[8] = tested on: OVCAR-4 ovarian
[9] = tested on: HCT-15 colon
[10] = tested on: UACC-62 melanoma
[11] = tested on: K-562 leukemia
[12] = tested on: NCI-H522 lung
[13] = tested on: HOP-62 NSCLC
[14] = tested on: UACC-257 melanoma
[15] = tested on: SF-268 CNS
[16] = tested on: CAKI-1 renal
[17] = tested on: HOP-92 NSCLC

Structure (SMILES)	TGI [1] [µM]	TGI [2] [µM]	TGI [3] [µM]	TGI [4] [µM]	TGI [5] [µM]	TGI [6] [µM]	TGI [7] [µM]	TGI [8] [µM]	TGI [9] [µM]	TGI [10] [µM]	TGI [11] [µM]	TGI [12] [µM]	TGI [13] [µM]	TGI [14] [µM]	TGI [15] [µM]	TGI [16] [µM]	TGI [17] [µM]
NC(=O)CNC(=O)C1CC(O)CN1C(=O)C1CCCN1C(=O)OCc1ccccc1 (stereo not drawn) (Cbz-Pro-[Hyp]-Gly-NH2; configuration not given here)	> 100	> 100	> 100	> 100	> 100	> 100	> 100	> 100	> 100	> 100	> 100	> 100	> 100	> 100	> 100	–	–
O=[N+]([O-])c1ccc2nc(/C=C(\O)c3ccccc3)c(NC34CC5CC(CC(C5)C3)C4)nc2c1	> 10	> 10	> 10	–	> 10	> 10	–	> 10	> 10	–	–	> 10	> 10	> 10	> 10	> 10	–
c1cc2nnc1SCCSCCCSCCS2	> 100	> 100	> 100	> 100	> 100	> 100	–	> 100	> 100	> 100	> 100	> 100	> 100	> 100	> 100	> 100	> 100
FC(F)(F)c1nc2c(ccc3[nH]c4c(-c5ccccc5)nccc4c32)[nH]1	> 100	> 100	–	> 69.1	> 100	> 100	–	> 100	> 100	> 100	> 100	> 100	> 100	> 100	> 100	> 100	> 100
CC1(C)OC2C(O1)[C@H]1OC(C(Cl)(Cl)Cl)=N[C@H]1C(I)[C@H]2N1C(=O)c2ccccc2C1=O (some centres not stated)	> 100	61.7	–	> 100	> 100	–	–	55.5	> 100	> 100	> 100	74.5	> 100	> 100	> 100	–	> 100
Cc1ccc(C2SCc3nc4ccccc4n32)cc1 (configuration not stated)	> 100	> 100	> 100	> 100	79	85.8	–	92.8	–	21.3	14.8	85.6	23.7	68.3	> 100	49.7	70
N#Cc1n[nH]n(-c2ccccc2)c1=O	> 100	> 100	> 100	–	> 100	> 100	> 100	> 100	> 100	> 100	> 100	> 100	> 100	> 100	> 100	> 100	–
COc1ccc(C2S/C(=C\c3ccc([N+](=O)[O-])cc3)C(=O)N2NC(=O)Cc2ccccc2)cc1 (configuration not stated)	> 100	> 100	–	> 100	> 100	> 100	–	> 100	> 100	> 100	> 100	> 100	> 100	> 100	> 100	> 100	> 100
CN(C)c1cccc2c(S(=O)(=O)NCCCNCCN)cccc12	> 100	> 100	> 100	46	> 100	> 100	–	> 100	> 100	> 100	43.1	> 100	> 100	> 100	> 100	> 100	80.4
OCCCN=C1N=C(Cl)/C(=C\c2ccccc2)N1	> 100	> 100	> 100	> 100	> 100	> 100	–	> 100	> 100	–	> 100	> 100	–	> 100	> 100	> 100	> 100
CN(C)CCSC(=Nc1ccccc1)n1cccc1	> 100	> 100	–	> 100	> 100	> 100	–	> 100	> 100	> 100	> 100	> 100	> 100	> 100	> 100	> 100	82.1
CN1C(CC(O)c2ccccc2)CCCC1CC(O)(c1ccccc1)c1ccccc1 (configuration not stated)	28.4	33.1	45.6	58.1	31.8	38.8	–	–	34.4	40.7	94.8	42.3	27.6	33.4	43.7	> 100	–
COc1ccc(/C=N/NC(=O)CSc2nc(-c3ccccc3)c(-c3ccccc3)[nH]2)cc1OC	57.8	55.5	–	> 100	60.3	63.3	–	87.4	83.9	40.5	–	39.9	72.5	57.3	> 100	72.9	84.6
COC(=O)[C@H]1C2CC[C@@H]3C45C[C@@H](c6ccoc6)O[C@@H]4O[C@@H](O2)C31CCC5C (some centres not stated)	> 100	> 100	–	> 100	> 100	> 100	–	> 100	> 100	> 100	> 100	> 100	> 100	> 100	> 100	> 100	> 100
CN(C)c1ccc(/C=C2\C[C@H]3[C@@H]4CC=C5C[C@@H](O)CC[C@]5(C)[C@H]4CC[C@]3(C)[C@H]2O)cc1	22.6	35.3	> 100	–	27.5	88.1	43.3	98.6	39.7	30.2	> 100	–	> 100	35.7	34.8	–	–
